Test results reported in PMC4446607, “Tilapia Piscidin 4 (TP4) Stimulates Cell Proliferation and Wound Closure in MRSA-Infected Wounds in Mice” (Marine Drugs, 2015).

Assays:
[1] = tested on: MRSA; experiment: Mouse model of MRSA sepsis (survival, lethality, bacterial counts in organs); assay type: in vivo, Staphylococcus aureus; details: for Survival rate at eight days after MRSA infection: i.p. treatment 10 min later: TP4 0.005 mg/g, vancomycin 0.01 mg/g, methicillin 0.01 mg/g; for Survival rate at eight days after MRSA infection / % lethality: n = 10; for Mean ± SD Count (CFU/mL) Blood / Mean ± SD Count (CFU/mL) Liver / Mean ± SD Count (CFU/mL) Mesenteric Lymph Nodes / Mean ± SD Count (CFU/mL) Peritoneum / Mean ± SD Count (CFU/mL) Spleen / % lethality: MRSA-infected mice, TP4 0.005 mg/g, methicillin or vancomycin 0.01 mg/g; for Mean ± SD Count (CFU/mL) Blood / Mean ± SD Count (CFU/mL) Liver / Mean ± SD Count (CFU/mL) Mesenteric Lymph Nodes / Mean ± SD Count (CFU/mL) Peritoneum / Mean ± SD Count (CFU/mL) Spleen: 48 h after i.p. treatment; for % lethality: monitored for 2 day following i.p. injection
Description: (§1) An MRSA strain commonly associated with human wound infections was selected to generate a polymicrobial solution [32]. The MRSA strain is a clinical isolate from stool obtained from Taipei City Hospital (Heping Fuyou branch). The strain was identified by routine laboratory methods and stored in 20% (vol/vol) glycerol at −80 °C. Tryptic Soy Broth (TSB) was used as the culture medium. HaCaT human keratinocyte cell line and Hs-68 human foreskin fibroblast cell line were grown in DMEM containing 10% (v/v) FBS, 0.37% (w/v) NaHCO3, penicillin (100 unit/mL), streptomycin (100 μg/mL), 0.1 mM NEAA, and 1 mM sodium pyruvate at 37 °C in a humidified incubator under 5% CO2 and 95% air. The cells were harvested at ca. 90% confluence (ca. 10^6 cells/10-cm dish). Balb/c female mice were used for the experiments. All mice were housed in cages under specific pathogen-free conditions, and given water and standard laboratory chow ad libitum during the experiments. All animal handing procedures were in accordance with National Taiwan Ocean University (NTOU) guidelines. All procedures were approved by the Animal Care and Use Committee of NTOU.
Female Balb/c mice (6–8 weeks old) were injected intraperitoneally with 10^6 CFU MRSA per mouse. Ten minutes after MRSA injection, mice were injected intraperitoneally with vancomycin (0.01 mg/g mouse body weight), methicillin (0.01 mg/g mouse body weight), or TP4 (0.005 mg/g mouse body weight). In a second set of experiments, mice were given intraperitoneal injections of TP4 (0.005 mg/g mouse body weight) at 10, 60, 120, or 180 min after MRSA injection. Survival rate and status were recorded every 24 h for up to 192 h. To examine bacterial dissemination, mice were sacrificed at 48 h after injection with antibiotics or TP4, and the bacterial numbers in blood, peritoneum, spleen, liver, and mesenteric lymph nodes were recorded. Colony counts from the diluted bacterial solutions were expressed relative to those at the start of treatment. These experiments consisted of four groups, and each group contained 10 mice.

[2] = tested on: HaCaT human keratinocyte cell line; assay type: cell-based; details: HaCaT cells
Description: as §1
(§2) Cells were cultured at a density of 5 × 10^4 cells per well in flat-bottomed 96-well plates, and supplemented with various combinations of TP4. After 24 h, cell viability were measured with neutral red (Cat. No. N4638; Sigma, St. Louis, MO, USA) uptake assay, Cytotoxicity Detection Kit (LDH) (Cat. No. 11644793001; Roche Applied Science, Indianapolis, IN, USA), and CellTiter 96 Aqueous One Solution (Cat. No. G1111; Promega, Madison, WI, USA), following the vendors’ instructions.

[3] = tested on: Hs-68 human foreskin fibroblast cell line; assay type: cell-based
Description: as §1, §2

[4] = tested on: collagen I, collagen III and KGF gene expression in Hs-68 cells; experiment: Real-time qPCR of collagen I, collagen III and KGF gene expression in Hs-68 cells; assay type: cell-based, human; details: TP4 6.25 μg/mL, 48 h, GAPDH reference
Description: (§3) Total RNA was isolated from HaCaT and Hs-68 cells, and purified using a Qiagen RNeasy kit. Reverse transcription into cDNA was performed with an iScript cDNA Synthesis Kit (Cat. No. 1708991; BIO-RAD, Hercules, CA, USA) according to the manufacturer’s recommendations. Real-time polymerase chain reaction (PCR) was performed to analyze gene expression, using […] of cDNA, 2× iQSYBR® Green Supermix (Cat. No. 1708882; BIO-RAD, Hercules, CA, USA), and 500 nM of forward and reverse primers against selected genes or GAPDH (reference gene), according to the instructions of the manufacturer. Quantitative PCR was performed under the following conditions: 40 cycles of 1 min at 95 °C, 30 s at 55 °C, and 1 min at 72 °C. The threshold cycle number (Ct) was calculated with BIO-RAD software. Relative transcript quantities were calculated using the ΔCt method with GAPDH as the internal reference gene. ΔCt is the difference in the threshold cycles of messenger (m) RNA for selected genes relative to those of GAPDH mRNA. Real-time PCR was performed in triplicate for each experimental group.

[5] = tested on: keratin 10 and keratin 17 gene expression in HaCaT cells; experiment: Real-time qPCR of keratin 10 and keratin 17 gene expression in HaCaT cells; assay type: cell-based, human; details: TP4 6.25 µg/mL, 48 h, GAPDH reference
Description: as §3

[6] = tested on: MRSA-infected wounds; experiment: Mouse model of wound healing, full-thickness wounds contaminated with MRSA (wound closure); assay type: in vivo, Balb/c mice
Description: Female Balb/c mice (6–8 weeks old) were used for wound healing experiments. All mice were housed individually to prevent fighting and further damage to the wounds, and they were provided with food and water ad libitum. Mice were maintained on a 12 h light: dark cycle at room temperature, and acclimatized to the environment for at least a week before use in experiments. All researchers wore caps, sterile gloves, gowns, and shoe covers when handling mice. Hair was removed from the back of the mice by shaving, and a full thickness wound (1 cm in diameter) was then created in the exposed region. Each wound was inoculated with 50 µL of broth mix containing 10^6 CFU (colony forming units) of MRSA. At 5 min after inoculation, 50 µL TP4 (2 mg/mL) in a total volume of 0.1 mL were applied to the wound. […] Animals were subsequently euthanized by CO2 inhalation and the wounds assessed. […] Each wound was measured and then removed from the animal, with unwounded skin taken from the contralateral dorsum as a control. Each biopsy was divided into six sections, with three sections being used for tensiometry and histology, and three sections for quantitative determination of microbial load. […]
Tracings were taken immediately after injury. For uncontaminated wounds, wound size was determined every second day. […] Wound areas were determined using the Macintosh Adobe Photoshop program, Histogram Analysis. […]

[7] = tested on: TNF, IL-6 and IL-1 in serum; experiment: Serum cytokines (TNF, IL-6, IL-1) by ELISA in mice with MRSA-infected wounds; assay type: in vivo; details: MRSA-infected wound
Description: Female Balb/c mice (6–8 weeks old) were used for wound healing experiments. All mice were housed individually to prevent fighting and further damage to the wounds, and they were provided with food and water ad libitum. Mice were maintained on a 12 h light: dark cycle at room temperature, and acclimatized to the environment for at least a week before use in experiments. All researchers wore caps, sterile gloves, gowns, and shoe covers when handling mice. Hair was removed from the back of the mice by shaving, and a full thickness wound (1 cm in diameter) was then created in the exposed region. Each wound was inoculated with 50 µL of broth mix containing 10^6 CFU (colony forming units) of MRSA. At 5 min after inoculation, 50 µL TP4 (2 mg/mL) in a total volume of 0.1 mL were applied to the wound. Thirty minutes after treatment, wounds were covered with Tegaderm (3 M, St. Paul, MN, USA) to maintain uniformity, and to prevent the mice from removing the treatments. Based on initial experiments, we examined the wounds at 3, 7, 14, and 21 days post-injury, so as not to disturb the infection. Such examinations captured the transitions from inflammatory to regenerative, and regenerative to resolving phases of wound healing. Animals were subsequently euthanized by CO2 inhalation and the wounds assessed. Four individuals in each group were examined at each time point for each experiment. Each wound was measured and then removed from the animal, with unwounded skin taken from the contralateral dorsum as a control. Each biopsy was divided into six sections, with three sections being used for tensiometry and histology, and three sections for quantitative determination of microbial load. Wound healing studies were repeated in triplicate.
Skin tissues were removed and fixed as previously described. In brief, the cryosections were fixed with 4% formaldehyde, and the tissue samples were stained with VEGF. IHC was analyzed by three independent investigators. Images were taken using a BX-51 microscope (Olympus, Japan). ELISA was performed as previously described.

[8] = tested on: EGF, TGF-β and VEGF gene expression in wound tissue; experiment: Real-time RT-PCR of EGF, TGF-β and VEGF gene expression in wound tissue of MRSA-infected mice; assay type: in vivo
Description: as §3
Tracings were taken immediately after injury. For uncontaminated wounds, wound size was determined every second day. […] Wound areas were determined using the Macintosh Adobe Photoshop program, Histogram Analysis. The percentage of wound contraction was calculated as follows: % Wound contraction = (A0 − At)/A0× 100, where A0 is the original wound area, and At is the area of wound at the time of biopsy, accordingly. Cell proliferation gene expression was performed by real-time PCR, using the methods described in Section 4.4 above.

[9] = Balb/c mice, MRSA 1 × 10^6 CFU/mouse i.p.
[10] = Balb/c mice, MRSA 1 × 10^6 CFU/mouse i.p., TP4 0.005 mg/g i.p.

Molecule | Survival rate at eight days after MRSA infection [1, 9] | Mean ± SD Count (CFU/mL) Blood [1] | Mean ± SD Count (CFU/mL) Liver [1] | Mean ± SD Count (CFU/mL) Mesenteric Lymph Nodes [1] | Mean ± SD Count (CFU/mL) Peritoneum [1] | Mean ± SD Count (CFU/mL) Spleen [1] | % lethality [1] | further results
COc1cccc(OC)c1C(=O)N[C@@H]1C(=O)N2[C@@H]1SC(C)(C)[C@@H]2C(=O)O [methicillin] | 0% | 4.1 × 10^7 ± 1.3 × 10^7 B CFU/mL | 2.7 × 10^8 ± 3.3 × 10^6 B CFU/mL | 4.1 × 10^7 ± 3 × 10^7 C CFU/mL | 2.3 × 10^9 ± 2 × 10^8 B CFU/mL | 1.5 × 10^8 ± 2.1 × 10^7 B CFU/mL | 20 ^B % | 
CN[C@H](CC(C)C)C(=O)N[C@H]1C(=O)N[C@@H](CC(N)=O)C(=O)N[C@H]2C(=O)N[C@H]3C(=O)N[C@H](C(=O)N[C@H](C(=O)O)c4cc(O)cc(O)c4-c4cc3ccc4O)[C@H](O)c3ccc(c(Cl)c3)Oc3cc2cc(c3O[C@@H]2O[C@H](CO)[C@@H](O)[C@H](O)[C@H]2O[C@H]2C[C@](C)(N)[C@H](O)[C@H](C)O2)Oc2ccc(cc2Cl)[C@H]1O [vancomycin] | 80% | 8 × 10^4 ± 1.1 × 10^4 B CFU/mL | 1.3 × 10^7 ± 1.8 × 10^5 B CFU/mL | 1 × 10^7 ± 4 × 10^6 B CFU/mL | 1.5 × 10^6 ± 1 × 10^5 A CFU/mL | 1.4 × 10^7 ± 1.1 × 10^6 B CFU/mL | 10% | 
H-FIHHIIGGLFSAGKAIHRLIRRRRR-OH [TP4, Tilapia piscidin 4] | 100% | 0 ^A CFU/mL | 2.4 × 10^6 ± 1 × 10^6 A CFU/mL | 6 × 10^5 ± 1 × 10^5 A CFU/mL | 1 × 10^6 ± 1 × 10^6 A CFU/mL | 3 × 10^6 ± 1.2 × 10^6 A CFU/mL | 0 ^A % | TP4 concentration at which stimulation of proliferation / gene expression was detectable [2]: 6.25 µg/mL; TP4 concentration at which stimulation of proliferation / gene expression was detectable ([3]; Hs-68 cells): 6.25 µg/mL; Doses at which Hs-68 cell proliferation was significantly increased ([3]; change in cell viability compared to the untreated group, neutral red, LDH, MTT): 2.5~10 μg/mL; Collagen I gene expression versus untreated controls [4]: enhanced; Collagen III gene expression versus untreated controls [4]: enhanced; KGF gene expression versus untreated controls [4]: enhanced; Keratin 10 gene expression versus untreated controls [5]: significantly increased; Keratin 17 gene expression versus untreated controls [5]: did not affect; Survival rate, TP4 injected 10 min after MRSA [1, 10]: 100%; Survival rate, TP4 injected 60 min after MRSA [1, 10]: 80%; Survival rate, TP4 injected 120 min after MRSA [1, 10]: 60%; Survival rate, TP4 injected 180 min after MRSA [1, 10]: 50%; Wound size by 14 days ([6]; MRSA-contaminated wounds, P < 0.05): smaller than that of the vancomycin-treated group; Wound closure compared with the control ([6]; contaminated wounds (increase not observed in uncontaminated wounds)): accelerated; IL-1 compared with control wounds [7]: statistically significant enhancement; Induction of IL-6 compared to MRSA-infected positive controls ([7]; three days after treatment): decreased induction; Induction of TNF compared to MRSA-infected positive controls ([7]; three days after treatment): decreased induction; EGF gene expression compared to control and vancomycin-treated mice ([8]; 3 days post-infection): enhanced gene expression; VEGF gene expression compared to control and vancomycin-treated mice ([8]; 14 days post-infection): enhanced gene expression; TGF gene expression compared to control and vancomycin-treated mice ([8]; seven days post-infection): enhanced gene expression
